We go through two compounds from patent publication US20070207975A1, “Materials and methods for treating and preventing Her-2/neu overexpressing, FAS-elevated cancer cells” (EVANSTON NORTHWESTERN HEALTHCARE, priority 2006, published 2007).

In one assay the test system is p185^Her-2/neu. Kind of assay: Flow cytometric analysis of cell surface-associated p185Her-2/neu. It counts as cell-based, human. The settings on record: for reduction of cell surface-associated p185^Her-2/neu expression: 10 mM OA, 48 hours, 0.1% FBS; for down-regulation of p185^Her-2/neu expression: OA 5 mM, trastuzumab 5 mg/ml. An excerpt: FIG. 1. […] FIG. 2. […] The amount of cell surface-associated p185^Her-2/neu was quantified by flow cytometric analyses using a specific antibody against the extracellular domain of p185^Her-2/neu (Ab-5), as described herein. The mean fluorescence signal±SD (n=3) was quantified using the geo mean fluorescence (GM) parameter provided with the Cell Quest Software (Becton Dickinson). […] After labeling, cells were washed thoroughly, and localization of p185^Her-2/neu was detected by indirect immunofluorescence by incubating with FITC-conjugated anti-mouse IgG. After counterstaining with DAPI, cells were examined and photographed using a Zeiss fluorescent microscope equipped with a built-in camera. […] Before experiments, cells were serum-starved overnight and then cultured in IMEM containing 0.1% FBS in the absence or presence of GLA (Sigma Chemical Co., St. Louis, Mo.). GLA was prepared at a concentration of 1 mg/mL in ethanol and was added to a final concentration of 0, 5, 10, or 20 μg/mL; an equal volume of ethanol was added to control cells. […] A) Cell surface expression of Her-2/neu protein in BT-474 and SK-Br3 cells was determined by flow cytometry using a mouse anti-Her-2/neu antibody directed against the extracellular domain of the p185^Her-2/neu oncoprotein (clone Ab-5; Oncogene Research Products; San Diego, Calif.). Briefly, after GLA or control treatment, cells were washed, harvested, resuspended in phosphate-buffered saline (PBS) containing 1% FBS, and incubated with 5 μg/mL Ab-5 antibody for 1 hour at 4° C. The cells were washed again and then incubated with a fluorescein isothiocyanate (FITC)-conjugated anti-mouse IgG secondary antibody (Jackson ImnunoResearch Laboratories, West Grove, Pa.) diluted 1:200 in cold PBS containing 1% FBS for 45 minutes at 4° C. The cells were washed once more in cold PBS, and flow cytometric analysis was performed with a FACScalibur flow cytometer (Becton Dickinson, San Diego, Calif.) equipped with Cell Quest Software (Becton Dickinson). […] As a control for nonspecific immunofluorescence, cells were stained with the secondary antibody alone (solid black line). The mean fluorescence signal associated with cells for labeled p185^Her-2/neu was quantified using the Geo Mean (GM) fluorescence parameter provided with the software. […] B) Immunoblot analysis of Her-2/neu and PEA3 proteins in control- and GLA-treated BT-474 and SK-Br3 cells. […] Immunoreactive bands were detected by enhanced chemiluminescence reagent (Pierce, Rockford, Ill.). Blots were reprobed with an anti-β-actin goat polyclonal antibody (Santa Cruz Biotechnology) to control for protein loading and transfer. Densitometric values of protein bands were quantified using Scion Imaging Software (Scion Corp., Frederick, Md.).

In a further assay the test system is SK-Br3 and BT-474 cells. Kind of assay: Soft-agar colony-formation assay. It counts as cell-based, human.
The test system of a further assay is Breast Cancer Cells. Kind of assay: Effect of fatty acids, breast cancer cells (Table 2). The conditions noted are these: FAS named only for oleic acid. It is filed as cell-based.
The next assay deals with BT-474 cells. The experiment in a line: TUNEL apoptosis assay, BT-474. It counts as cell-based, human. Here is the method: FIG. 6. […] The immunofluorescence photomicrographs of cells undergoing apoptosis (green staining) and the corresponding DAPI-counterstained photomicrographs are shown. […] Equal amounts of total protein (50 μg per lane) were subjected to Western blot analyses with a specific antibody against the p85 fragment of PARP, and then re-probed with a β-actin antibody. […] For each pair of columns, the height of the columns on the left represents the sum of the effect of each agent alone and, therefore, the expected apoptotic cell death if their effect was additive when used in combination. The total height of the columns on the right indicates the observed apoptosis when the agents were used in combination. […] A) Cell surface expression of Her-2/neu protein in BT-474 and SK-Br3 cells was determined by flow cytometry using a mouse anti-Her-2/neu antibody directed against the extracellular domain of the p185^Her-2/neu oncoprotein (clone Ab-5; Oncogene Research Products; San Diego, Calif.). […] The mean fluorescence signal associated with cells for labeled p185^Her-2/neu was quantified using the Geo Mean (GM) fluorescence parameter provided with the software. […] Immunoreactive bands were detected by enhanced chemiluminescence reagent (Pierce, Rockford, Ill.). […] Densitometric values of protein bands were quantified using Scion Imaging Software (Scion Corp., Frederick, Md.).

The test system of the next assay is Her-2/neu mRNA. Kind of assay: Semiquantitative RT-PCR of Her-2/neu transcripts. It counts as cell-based, human.

Take `CCCCCC=CCC=CCC=CCCCCC(=O)O` [GLA, 6,9,12-octadecatrienoic acid]: the “levels of cell surface-associated Her-2/neu protein versus vehicle-treated cells” value in the assay with p185^Her-2/neu (BT-474 and SK-Br3 cells, GLA 10 μg/mL for 48 hours) was “substantially lower”. The “anchorage-independent growth in soft agar, effect of GLA cotreatment” value with SK-Br3 and BT-474 cells (BT-474 and SK-Br3, GLA with suboptimal doses of trastuzumab) is given as “enhanced the growth-inhibitory effects”. Also, in the assay with Breast Cancer Cells, the “Effect of Fatty Acids: Breast Cancer Cells” value is given as “Potent Down-regulator”. Moreover, in the assay on BT-474 cells (GLA 10 μg/mL, trastuzumab 10 μg/mL, alone or together, 48 hours), the “cells that underwent apoptosis (TUNEL)” value is 5% (95% confidence interval [CI]=4% to 6%). The “transcription of the Her-2/neu gene (RT-PCR)” value in the assay on Her-2/neu mRNA (BT-474 and SK-Br3, GLA 5, 10, or 20 μg/ml for 48 hours) is given as “Strong, dose-dependent decreases”.

On to `CCCCCCCCC=CCCCCCCCC(=O)O` [OA, 9-octadecenoic acid], for which the “reduction of cell surface-associated p185^Her-2/neu expression” value in the assay with p185^Her-2/neu (BT-474 cells) is reported as “up to 46%”; in the assay with p185^Her-2/neu (SK-Br3 cells) it was “up to 36%”. Besides, the “down-regulation of p185^Her-2/neu expression” value with p185^Her-2/neu (BT-474 cells, alone or concurrently combined) was found to be 36%; with p185^Her-2/neu (SK-Br3 cells, alone or combined), 24%. Also, in the assay on SK-Br3 and BT-474 cells (SK-Br3 and BT-474, OA, trastuzumab or co-exposure), the “anchorage-independent colony formation in soft agar” value is reported as “slightly decreased”. For the same compound, the “Effect of Fatty Acids: Breast Cancer Cells” value in the assay on Breast Cancer Cells is recorded as “Down-regulates”. In addition, in the assay on BT-474 cells (OA 5 μM, trastuzumab 10 μg/ml, alone or simultaneously, 72 hours), the TUNEL-positive cells is 2%. Moreover, in the assay with Her-2/neu mRNA (OA-treated SK-Br3 cells), the “expression levels of Her-2/neu transcripts (RT-PCR)” value is reported as “significant reduction”.
